Data: US8772512B2, “Crystallisation process for 1-(β-D-glucopyranosyl)-4-methyl-3-[5-(4-fluorophenyl)-2-thienylmethyl] benzene” (Janssen Pharmaceutica NV, priority 2009, dated 2014)

What was measured:
[1] = Bulk and tap density (25 g in 100-ml graduated cylinder; 500 taps); format: physicochemical; conditions: for Bulk density: 25 g, volume in 100-ml graduated cylinder; for Bulk density / Tap density: hemihydrate; for Tap density: after 500 taps
Description: The bulk and tap densities of the crystallised 1-(β-D-glucopyranosyl)-4-methyl-3-[5-(4-fluorophenyl)-2-thienylmethyl] benzene hemihydrate were measured. The bulk density of 25 g of compound (I) was measured by recording its volume in a 100-ml graduated cylinder. Tap density volume was then measured after 500 taps.

[2] = Particle size distribution by laser diffraction (Malvern Mastersizer 2000, wet dispersion); format: physicochemical; conditions: Fraunhofer optical model, hemihydrate; for particle size distribution D10: d10 cumulative undersize by volume, dispersed in 1% (w/v) polysorbate 20 in water; for particle size distribution D50: d50 cumulative undersize by volume; for particle size distribution D90: d90 cumulative undersize by volume
Description: Particle size of original compound (I) and crystallised compound (I) according to the procedure of Example 1 have been determined with laser diffraction (LD). For this purpose, a Malvern Mastersizer 2000 laser diffractometer (Malvern, U.K.) has been used, which was equipped with a Hydro 2000S wet dispersion module. Prior to analysis, an amount of ca. 200 mg of the product was dispersed in 1% (w/v) polysorbate 20 in water by means of vigorous shaking for 30 seconds. A representative portion of this dispersion was than added to the reservoir of the wet dispersion module, which for this purpose was filled with water. The liquid medium was circulated via the measurement cell of the instrument, to allow measurement of the product specific scattering pattern. Based on the scattering intensities as measured under different angles relative to the incoming collimated laser beam, for compound (I) the particle size distribution (PSD) by volume was calculated based on the Fraunhofer optical model. For the PSD, the d10, d50 and d90 cumulative undersize were reported as the relevant statistical descriptors.

Compound | Bulk density [1] [g/mL] | Tap density [1] [g/mL] | bulk density higher than for original compound (I) ([1]; crystallised according to Example 1 versus original compound (I)) [%] | particle size distribution D10 [2] [μm] | particle size distribution D50 [2] [μm] | particle size distribution D90 [2] [μm]
Cc1ccc([C@@H]2O[C@H](CO)[C@@H](O)[C@H](O)[C@H]2O)cc1Cc1ccc(-c2ccc(F)cc2)s1 [crystallised compound (I), 1-(β-D-glucopyranosyl)-4-methyl-3-[5-(4-fluorophenyl)-2-thienylmethyl] benzene hemihydrate] | 0.35 | 0.54 | 20 | 20 | 49 | 102
Cc1ccc([C@@H]2O[C@H](CO)[C@@H](O)[C@H](O)[C@H]2O)cc1Cc1ccc(-c2ccc(F)cc2)s1 [original compound (I), 1-(β-D-glucopyranosyl)-4-methyl-3-[5-(4-fluorophenyl)-2-thienylmethyl] benzene hemihydrate] | 0.28 | 0.48 | – | 14 | 43 | 116
